The results in this text go back to patent publication US20250091992A1, “NOVEL COMPOUNDS AND USES THEREOF” (KANNA HEALTH LIMITED, priority 2021, published 2025).

Assay [1] deals with human serotonin transporter (Homo sapiens, UniProt P31645). To be noted: for inhibition: 10 µM.
Description: Following incubation, [^3H] serotonin uptake was quantified by a standard scintillation counting method.
In assay [2] the target is human recombinant PDE-4B1 (Homo sapiens, UniProt Q07343). Description: PDE4-B1 assay (Compounds of Formula I), SPA. Type of assay: biochemical. The following applies: for IC50: 4-parameter logistical fit, two technical replicates; for inhibition at 30 µM: relative to Ro 20-1724. On the procedure:
(§1) 20 mins after addition of human recombinant PDE-4B1 (1.2 IEU) or PDE-4D2 (1.5 IEU), SPA beads were added and incubated at 22° C. for a further 30 mins. [^3H]5′AMP was quantified by a standard scintillation counting method.

Assay [3] has as its target human recombinant PDE-4D2 (Homo sapiens, UniProt Q08499). Description: PDE4-D2 assay (Compounds of Formula I), SPA. It counts as biochemical. To be noted: for IC50: 4-parameter logistical fit, two technical replicates; for inhibition at 30 µM: relative to Ro 20-1724. Here is the method:
as §1

In a further assay the target is T1, hSERT (Homo sapiens, UniProt P31645).
T1 construct: expressed in transfected cells
T1 sequence (P31645 whole entry): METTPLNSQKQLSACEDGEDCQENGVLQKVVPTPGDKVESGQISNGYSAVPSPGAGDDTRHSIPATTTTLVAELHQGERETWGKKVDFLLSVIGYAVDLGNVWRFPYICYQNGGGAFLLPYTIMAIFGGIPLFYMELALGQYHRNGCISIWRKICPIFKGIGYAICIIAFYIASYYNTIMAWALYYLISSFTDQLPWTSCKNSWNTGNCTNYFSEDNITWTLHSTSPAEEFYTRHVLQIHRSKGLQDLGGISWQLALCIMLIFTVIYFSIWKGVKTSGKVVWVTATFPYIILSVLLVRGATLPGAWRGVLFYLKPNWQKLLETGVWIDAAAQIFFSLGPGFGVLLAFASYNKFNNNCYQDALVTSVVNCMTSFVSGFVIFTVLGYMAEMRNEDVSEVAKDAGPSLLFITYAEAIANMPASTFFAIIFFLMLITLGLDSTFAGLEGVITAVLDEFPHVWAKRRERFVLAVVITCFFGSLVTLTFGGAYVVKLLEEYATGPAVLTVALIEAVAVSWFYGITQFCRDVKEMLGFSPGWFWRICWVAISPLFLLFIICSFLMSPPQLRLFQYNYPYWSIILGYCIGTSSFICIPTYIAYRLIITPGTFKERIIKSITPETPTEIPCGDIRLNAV
Nature of the assay: SERT assay (Compounds of Formula II), transporter uptake assay kit. It counts as cell-based. On the procedure: SERT assays were performed using a standard transporter uptake assay kit, (Molecular devices, (R8174)). In short, test compounds (10 nM-30 μM), reference compound or vehicle control were added to cells stably expressing hSERT (20,000/well) in assay buffer containing HBSS (20 mM) and BSA (0.1% (w/v)) for 30 mins at 30° C. Assay plates were incubated in the presence of dye for a further 60 mins at 37° C. and intracellular fluorescence intensity was determined.

The target in another assay is T2, PDE-4A1A (Homo sapiens, UniProt P27815).
T2 construct: purchased Sigma SRP0262
T2 sequence (P27815 1-647 isoform P27815-4): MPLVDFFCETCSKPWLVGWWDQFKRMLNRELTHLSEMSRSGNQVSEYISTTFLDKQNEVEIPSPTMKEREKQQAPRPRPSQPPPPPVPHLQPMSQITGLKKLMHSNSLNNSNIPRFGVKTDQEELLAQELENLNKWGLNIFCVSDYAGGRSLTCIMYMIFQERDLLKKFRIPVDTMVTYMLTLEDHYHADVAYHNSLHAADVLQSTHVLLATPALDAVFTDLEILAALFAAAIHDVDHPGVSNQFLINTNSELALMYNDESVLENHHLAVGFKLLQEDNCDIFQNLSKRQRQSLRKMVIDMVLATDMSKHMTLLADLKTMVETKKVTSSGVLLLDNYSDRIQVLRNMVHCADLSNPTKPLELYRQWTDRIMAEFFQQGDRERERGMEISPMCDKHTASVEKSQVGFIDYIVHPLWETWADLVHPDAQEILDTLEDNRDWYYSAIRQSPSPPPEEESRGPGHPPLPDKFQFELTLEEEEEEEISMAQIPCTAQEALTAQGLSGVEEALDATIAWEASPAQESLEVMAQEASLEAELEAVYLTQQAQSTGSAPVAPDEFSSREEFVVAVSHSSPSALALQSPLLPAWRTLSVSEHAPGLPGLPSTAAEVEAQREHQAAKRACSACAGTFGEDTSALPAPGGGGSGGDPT
Description: PDE-41A assay (Compounds of Formula II), AMP-Glo. It counts as biochemical. Here is the method:
PDE-41A assays were performed using the AMP-Glo™ Assay Kit, (Promega-V5012) human recombinant […] (Sigma, SRP0262) according to recommended protocols. […]

Molecules are shown by their SMILES.

human recombinant PDE-4D2, sequence (Q08499 303-809): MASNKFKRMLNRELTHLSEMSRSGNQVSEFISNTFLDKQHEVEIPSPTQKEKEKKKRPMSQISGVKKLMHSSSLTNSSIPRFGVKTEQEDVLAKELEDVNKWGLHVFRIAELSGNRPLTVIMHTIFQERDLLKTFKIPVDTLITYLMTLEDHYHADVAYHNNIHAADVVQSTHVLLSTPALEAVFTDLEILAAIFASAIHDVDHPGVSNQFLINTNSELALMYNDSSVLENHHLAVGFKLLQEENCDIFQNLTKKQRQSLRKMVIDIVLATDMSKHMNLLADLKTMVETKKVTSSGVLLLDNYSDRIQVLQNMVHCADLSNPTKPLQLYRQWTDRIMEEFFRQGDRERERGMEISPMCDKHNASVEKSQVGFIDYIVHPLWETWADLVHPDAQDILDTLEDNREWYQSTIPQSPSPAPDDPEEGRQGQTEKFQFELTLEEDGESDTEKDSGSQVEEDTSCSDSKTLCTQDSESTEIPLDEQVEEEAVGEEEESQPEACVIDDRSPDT
human serotonin transporter, sequence (P31645 whole entry): as the sequence (P31645 whole entry) above
human recombinant PDE-4B1, sequence (Q07343 whole entry): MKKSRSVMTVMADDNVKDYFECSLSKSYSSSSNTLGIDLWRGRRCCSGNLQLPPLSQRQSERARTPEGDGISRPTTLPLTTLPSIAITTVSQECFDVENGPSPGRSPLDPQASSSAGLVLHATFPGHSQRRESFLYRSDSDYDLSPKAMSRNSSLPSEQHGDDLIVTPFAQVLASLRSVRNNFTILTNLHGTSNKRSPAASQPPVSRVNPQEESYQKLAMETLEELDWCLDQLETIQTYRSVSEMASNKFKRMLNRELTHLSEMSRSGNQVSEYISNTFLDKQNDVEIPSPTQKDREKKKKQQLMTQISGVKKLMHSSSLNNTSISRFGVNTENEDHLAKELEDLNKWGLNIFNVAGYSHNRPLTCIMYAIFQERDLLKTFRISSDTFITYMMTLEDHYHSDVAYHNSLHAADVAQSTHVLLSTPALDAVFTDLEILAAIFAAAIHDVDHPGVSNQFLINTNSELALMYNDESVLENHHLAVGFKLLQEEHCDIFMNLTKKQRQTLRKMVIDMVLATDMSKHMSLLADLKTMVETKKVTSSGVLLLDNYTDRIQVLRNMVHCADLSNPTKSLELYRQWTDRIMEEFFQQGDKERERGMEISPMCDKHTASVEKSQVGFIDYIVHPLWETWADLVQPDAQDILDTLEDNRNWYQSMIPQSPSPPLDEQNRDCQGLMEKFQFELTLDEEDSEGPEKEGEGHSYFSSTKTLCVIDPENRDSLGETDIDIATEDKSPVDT

For `CCSc1cc([C@@]23CCC(=O)C[C@@H]2N(C)CC3)ccc1OC` [Compound 3], the IC50 in assay [1] was 5 nM; in assay [2], 5.2 µM; in assay [3], 1.3 µM.
In the case of `COc1ccc([C@@]23CCC(=O)C[C@@H]2N(C)CC3)cc1OCC(F)F` [Compound 7], the IC50 in assay [1] is 20 nM.
In the case of `COc1ccc([C@@]23CCC(=O)C[C@@H]2N(C)CC3)cc1O` [Compound 10], the IC50 is 300 nM in assay [1], over 30 µM in assay [2] and over 30 µM in assay [3].
On to `COc1ccc([C@@]23CCC(=O)C[C@@H]2N(C)CC3)cc1OC1CCCCC1` [Compound 14], for which the inhibition in assay [1] amounted to 59%. The inhibition at 30 µM in assay [2] is 94%; in assay [3], 97%.
For the molecule `CCOc1ccc([C@@]23CCC(=O)C[C@@H]2N(C)CC3)cc1O` [Compound 16], the inhibition in assay [1] was 98%. The results for the inhibition at 30 µM in assay [2] and in assay [3] were -1% and 3%, respectively.
In the case of `CCOc1ccc([C@@]23CCC(=O)C[C@@H]2N(C)CC3)cc1SC` [Compound 17], in assay [1], the inhibition turned out to be 99%. In addition, the values for the inhibition at 30 µM in assay [2] and in assay [3] were 61% and 74%, respectively.
In the same order, the values of `CC(C)Oc1ccc([C@@]23CCC(=O)C[C@@H]2N(C)CC3)cc1O` [Compound 18] are 86%, -4% and -3%.
In the same order, the values of `COc1cc([C@@]23CCC(=O)C[C@@H]2N(C)CC3)ccc1OC(C)C` [Compound 19] are 99%, 1% and 3%.
In the same order, the values of `CCCCOc1cc([C@@]23CCC(=O)C[C@@H]2N(C)CC3)ccc1OCC` [Compound 20] are 100%, 83% and 92%.
Take `CC(C)Oc1ccc([C@@]23CCC(=O)C[C@@H]2N(C)CC3)cc1OCC1CC1` [Compound 22]: the inhibition in assay [1] was 91%. Also, the inhibition at 30 µM in assay [2] stood at 38%; in assay [3], 37%.
In the same order, the values of `CCOc1ccc([C@@]23CCC(=O)C[C@@H]2N(C)CC3)cc1OC1CCCCC1` [Compound 23] are 77%, 88% and 93%.
Take `CSc1cc([C@@]23CCC(=O)C[C@@H]2N(C)CC3)ccc1OC(C)C` [Compound 25]: the IC50 in assay [2] and in assay [3] was over 30 µM throughout.
Take `CC(C)Oc1ccc([C@@]23CCC(=O)C[C@@H]2N(C)CC3)cc1OC1CCCCC1` [Compound 26]: in assay [1], the inhibition amounted to 81%. The figures for the inhibition at 30 µM in assay [2] and in assay [3] were 26% and 20%, respectively.
For the molecule `COc1ccc([C@]23CCC(=O)C[C@H]2N(C)CC3)cc1OC` [Compound 45], the IC50 in assay [3] is under 3 µM.
On to `COc1ccc([C@@]23CC[C@@H](OC(=O)CCC(=O)O)C[C@@H]2N(C)CC3)cc1OC` [Compound 46], for which, at hSERT, the inhibition at 1 µM came to 81% and the inhibition at 3 µM turned out to be 94%. On PDE-4A1A, the inhibition at 30 µM turned out to be 53% and the inhibition at 100 µM worked out at 79%.
As to `COc1ccc([C@@]23CC[C@@H](OC(=O)CCCC(=O)O)C[C@@H]2N(C)CC3)cc1OC` [Compound 47], on hSERT, the inhibition at 1 µM turned out to be 90% and the inhibition at 3 µM was found to be 94%. For the same molecule, at PDE-4A1A, the inhibition at 30 µM turned out to be 40% and the inhibition at 100 µM turned out to be 88%.
In the same order, the values of `COc1ccc([C@@]23CC[C@@H](OC(=O)CN)C[C@@H]2N(C)CC3)cc1OC` [Compound 48] are 93%, 101%, -8% and 48%.
In the case of `COc1ccc([C@@]23CC[C@@H](OC(=O)C(C)N)C[C@@H]2N(C)CC3)cc1OC` (some centres unmarked) [Compound 49], on hSERT, the inhibition at 1 µM is 95% and the inhibition at 3 µM came out at 97%. Moreover, at PDE-4A1A, the inhibition at 30 µM was 87% and the inhibition at 100 µM came out at 86%.
In the same order, the values of `CCC(=O)O[C@@H]1CC[C@@]2(c3ccc(OC)c(OC)c3)CCN(C)[C@H]2C1` [Compound 50] are 98%, 98%, 92% and 101%.
In the same order, the values of `COc1ccc([C@@]23CC[C@@H](OC(=O)C(C)C)C[C@@H]2N(C)CC3)cc1OC` [Compound 51] are 99%, 98%, 95% and 99%.
`COc1ccc([C@@]23CC[C@@H](OC(=O)c4ccccc4)C[C@@H]2N(C)CC3)cc1OC` [Compound 52]: on hSERT, the inhibition at 1 µM was 91% and the inhibition at 3 µM is 91%. Also, at PDE-4A1A, the inhibition at 30 µM is 97% and the inhibition at 100 µM stood at 99%.
On to `COc1ccc([C@@]23CC[C@@H](OC(=O)c4ccc[nH]4)C[C@@H]2N(C)CC3)cc1OC` [Compound 53], for which, at hSERT, the inhibition at 1 µM came to 99% and the inhibition at 3 µM worked out at 98%. Further, on PDE-4A1A, the inhibition at 30 µM turned out to be 94% and the inhibition at 100 µM came to 97%.
Consider `COc1ccc([C@@]23C=C[C@@H](OC(=O)CCC(=O)O)C[C@@H]2N(C)CC3)cc1OC` [Compound 54], for which, on hSERT, the inhibition at 1 µM worked out at 78% and the inhibition at 3 µM stood at 98%. Besides, on PDE-4A1A, the inhibition at 30 µM amounted to 98% and the inhibition at 100 µM is 101%.
Take `COc1ccc([C@@]23C=C[C@@H](OC(=O)CCCC(=O)O)C[C@@H]2N(C)CC3)cc1OC` [Compound 55]: on hSERT, the inhibition at 1 µM is 67% and the inhibition at 3 µM came out at 97%. On PDE-4A1A, the inhibition at 30 µM worked out at 100% and the inhibition at 100 µM is 95%.
In the same order, the values of `COc1ccc([C@@]23C=C[C@@H](OC(=O)CN)C[C@@H]2N(C)CC3)cc1OC` [Compound 56] are 86%, 99%, 74% and 102%.
In the same order, the values of `COc1ccc([C@@]23C=C[C@@H](OC(=O)C(C)N)C[C@@H]2N(C)CC3)cc1OC` (some centres unmarked) [Compound 57] are 86%, 97%, 101% and 102%.
In the same order, the values of `CCC(=O)O[C@@H]1C=C[C@@]2(c3ccc(OC)c(OC)c3)CCN(C)[C@H]2C1` [Compound 58] are 98%, 98%, 103% and 100%.
For `COc1ccc([C@@]23C=C[C@@H](OC(=O)C(C)C)C[C@@H]2N(C)CC3)cc1OC` [Compound 59], on hSERT, the inhibition at 1 µM was found to be 99% and the inhibition at 3 µM stood at 97%. In addition, on PDE-4A1A, the inhibition at 30 µM amounted to 100% and the inhibition at 100 µM worked out at 100%.
`COc1ccc([C@@]23C=C[C@@H](OC(=O)c4ccccc4)C[C@@H]2N(C)CC3)cc1OC` [Compound 60]: on hSERT, the inhibition at 1 µM came out at 92% and the inhibition at 3 µM amounted to 95%. Also, on PDE-4A1A, the inhibition at 30 µM stood at 98% and the inhibition at 100 µM came to 100%.
On to `COc1ccc([C@@]23C=C[C@@H](OC(=O)c4ccc[nH]4)C[C@@H]2N(C)CC3)cc1OC` [Compound 61], for which, on hSERT, the inhibition at 1 µM was determined as 101% and the inhibition at 3 µM was 106%. Also, at PDE-4A1A, the inhibition at 30 µM came out at 94% and the inhibition at 100 µM was 90%.
